Measured values published in patent US11040987B2 (TenNor Therapeutics Limited, priority 2019, dated 2021).
Values after ≈ are worked out from the molar mass of the structure shown.

Tests used:
Format in all cases: cell-based
[1] = tested on: K. pneumoniae ATCC 43816; assay: MIC determination, broth microdilution, ESKAPE panel; details: Klebsiella pneumoniae, ATCC43816; iron-depleted cation-adjusted Mueller-Hinton broth, 2,2-dipyridyl 160 μM; 37° C., 18-20 hours; read-out: MIC K. pneumoniae ATCC 43816
Description: (§1) Minimum inhibitory concentration (MIC) is determined by a broth microdilution method according to the recommendation of the Clinical and Laboratory Standards Institute (CLSI) with minor modification. […] Strains of an ESKAPE panel (E. faecium ATCC 700221, S. aureus ATCC 29213, K. pneumoniae ATCC 43816, A. baumannii ATCC 19606, P. aeruginosa ATCC 27853 and Escherichia coli ATCC 25922) were obtained originally from the American Type Culture Collection (ATCC) and used for MIC determinations of compounds. The bacteria inoculum in the test is […].

[2] = tested on: A. baumannii ATCC 19606; assay: as above; details: Acinetobacter baumannii, ATCC19606; iron-depleted cation-adjusted Mueller-Hinton broth, 2,2-dipyridyl 160 μM; 37° C., 18-20 hours; read-out: MIC A. baumannii ATCC 19606
Description: as §1

[3] = tested on: S. aureus ATCC 29213; assay: as above; details: Staphylococcus aureus, ATCC29213; iron-depleted cation-adjusted Mueller-Hinton broth, 2,2-dipyridyl 160 μM; 37° C., 18-20 hours; read-out: MIC S. aureus ATCC 29213
Description: as §1

[4] = tested on: E. faecium ATCC 700221; assay: as above; details: Enterococcus faecium, ATCC700221; iron-depleted cation-adjusted Mueller-Hinton broth, 2,2-dipyridyl 160 μM; 37° C., 18-20 hours; read-out: MIC E. faecium ATCC 700221
Description: as §1

[5] = tested on: Escherichia coli ATCC 25922; assay: as above; details: ATCC25922, iron-depleted cation-adjusted Mueller-Hinton broth, 2,2-dipyridyl 160 μM, 37° C., 18-20 hours, read-out: MIC E. coli ATCC 25922
Description: as §1

[6] = tested on: P. aeruginosa ATCC 27853; assay: as above; details: Pseudomonas aeruginosa, ATCC27853; iron-depleted cation-adjusted Mueller-Hinton broth, 2,2-dipyridyl 160 μM; 37° C., 18-20 hours; read-out: MIC P. aeruginosa ATCC 27853
Description: as §1

[7] = tested on: A.b TNP 41704; assay: MIC against A. baumannii clinical isolates, alone and in combination with antibiotics; details: for MIC: Acinetobacter baumannii, TNP41704, Compounds alone, read-out: MIC A.b TNP 41704
[8] = tested on: A.b TNP 41708; assay: as above; details: for MIC: Acinetobacter baumannii, TNP41708, read-out: MIC A.b TNP 41708
Description: as §1

[9] = tested on: A.b TNP 41709; assay: as above; details: for MIC: Acinetobacter baumannii, TNP41709, Compounds alone, read-out: MIC A.b TNP 41709

| Compound | MIC [1] [µg/mL] | MIC [2] [µg/mL] | MIC [3] [µg/mL] | MIC [4] [µg/mL] | MIC [5] [µg/mL] | MIC [6] [µg/mL] | MIC [7] [µg/mL] | MIC [8] [µg/mL] | MIC [9] [µg/mL] | MIC A.b TNP 41704 ([7]; Compounds + meropenem (1:1)) [µg/mL] | MIC A.b TNP 41704 ([7]; Compounds + sulbactam (1:1)) [µg/mL] | MIC A.b TNP 41708 ([8]; Compounds + meropenem (1:1)) [µg/mL] | MIC A.b TNP 41708 ([8]; Compounds + sulbactam (1:1)) [µg/mL] | MIC A.b TNP 41709 ([9]; Compounds + meropenem (1:1)) [µg/mL] | MIC A.b TNP 41709 ([9]; Compounds + sulbactam (1:1)) [µg/mL] | MIC A.b TNP 41704 ([7]; Compounds + Imipenem (1:1)) [µg/mL] | MIC A.b TNP 41708 ([8]; Compounds + Imipenem (1:1)) [µg/mL] | MIC A.b TNP 41709 ([9]; Compounds + Imipenem (1:1)) [µg/mL] |
| --- | --- | --- | --- | --- | --- | --- | --- | --- | --- | --- | --- | --- | --- | --- | --- | --- | --- | --- |
| C[C@@H](O)[C@H]1C(=O)N2C(C(=O)O)=C(SCCN=CN)C[C@H]12 [Imipenem, reference compound] | 0.5 (≈ 1.67 µM) | 0.25 (≈ 0.835 µM) | < 0.06 | > 128 | 0.25 (≈ 0.835 µM) | 1 (≈ 3.34 µM) | 16 | 32 | 32 | – | – | – | – | – | – | – | – | – |
| COc1ccc(C(=O)N/N=C/[C@@]2(C)[C@H](C(=O)O)N3C(=O)C[C@H]3S2(=O)=O)cc1 [Example 35, (2S,3R,5R)-3-((E)-(2-(4-methoxybenzoyl)hydrazono)methyl)-3-methyl-7-oxo-4-thia-1-azabicyclo[3.2.0]heptane-2-carboxylic acid 4,4-dioxide] | > 128 | > 128 | 128 (≈ 324 µM) | > 128 | > 128 | > 128 | > 128 | > 128 | > 128 | 32 | 4 | 1 | 16 | 32 | 4 | – | – | – |
| C[C@]1(/C=N/NC(=O)CCNC(=O)c2ccc(O)c(O)c2)[C@H](C(=O)O)N2C(=O)C[C@H]2S1(=O)=O [Example 67, (2S,3R,5R)-3-((E)-(2-(3-(3,4-dihydroxybenzamido)propanoyl)hydrazono)methyl)-3-methyl-7-oxo-4-thia-1-azabicyclo[3.2.0]heptane-2-carboxylic acid 4,4-dioxide] | 128 (≈ 273 µM) | 4 (≈ 8.54 µM) | 128 (≈ 273 µM) | > 128 | > 128 | > 128 | > 128 | > 128 | > 128 | 4 | 1 | 2 | 8 | 4 | 8 | 4 | 4 | 8 |
| C[C@]1(/C=N/NC(=O)CCNC(=O)c2ccc(O)c(O)c2Cl)[C@H](C(=O)O)N2C(=O)C[C@H]2S1(=O)=O [Example 60, (2S,3R,5R)-3-((E)-(2-(3-(2-chloro-3,4-dihydroxybenzamido)propanoyl)hydrazono)methyl)-3-methyl-7-oxo-4-thia-1-azabicyclo[3.2.0]heptane-2-carboxylic acid 4,4-dioxide] | 16 (≈ 31.8 µM) | 2 (≈ 3.98 µM) | > 128 | > 128 | > 128 | > 128 | 64 | > 128 | > 128 | 2 | 1 | 2 | 8 | 2 | 8 | 2 | 2 | 1 |
| C[C@]1(COC(=O)c2ccc(O)c(O)c2Cl)[C@H](C(=O)O)N2C(=O)C[C@H]2S1(=O)=O [Example 114, (2S,3R,5R)-3-(((2-chloro-3,4-dihydroxybenzoyl)oxy)methyl)-3-methyl-7-oxo-4-thia-1-azabicyclo[3.2.0]heptane-2-carboxylic acid 4,4-dioxide] | 2 (≈ 4.76 µM) | < 0.06 | 16 (≈ 38.1 µM) | > 128 | 8 (≈ 19.1 µM) | > 128 | > 128 | > 128 | > 128 | 64 | 8 | 64 | 32 | 64 | 16 | – | – | – |
| CN(NC(=O)OC[C@@]1(C)[C@H](C(=O)O)N2C(=O)C[C@H]2S1(=O)=O)C(=O)c1ccc(O)c(O)c1Cl [Example 77] | 16 (≈ 32.5 µM) | 0.25 (≈ 0.508 µM) | > 128 | > 128 | 64 (≈ 130 µM) | > 128 | > 128 | > 128 | > 128 | 16 | 8 | 32 | 32 | 16 | 16 | – | – | – |
| CN(NC(=O)c1ccc(O)c(O)c1)C(=O)OC[C@@]1(C)[C@H](C(=O)O)N2C(=O)C[C@H]2S1(=O)=O [Example 76, (2S,3R,5R)-3-(((2-(3,4-dihydroxybenzoyl)-1-methylhydrazinecarbonyl)oxy)methyl)-3-methyl-7-oxo-4-thia-1-azabicyclo[3.2.0]heptane-2-carboxylic acid 4,4-dioxide] | > 128 | 1 (≈ 2.19 µM) | > 128 | > 128 | > 128 | > 128 | > 128 | > 128 | > 128 | 16 | 8 | 32 | 16 | 16 | 8 | – | – | – |
| C[C@]1(/C=N/NC(=O)c2ccc(O)cc2)[C@H](C(=O)O)N2C(=O)C[C@H]2S1(=O)=O [Example 29, (2S,3R,5R)-3-((E)-(2-(4-hydroxybenzoyl)hydrazono)methyl)-3-methyl-7-oxo-4-thia-1-azabicyclo[3.2.0]heptane-2-carboxylic acid 4,4-dioxide] | > 128 | > 128 | > 128 | > 128 | > 128 | > 128 | > 128 | > 128 | > 128 | 32 | 8 | 32 | 32 | 32 | 32 | – | – | – |
| C[C@@H](O)[C@H]1C(=O)N2C(C(=O)O)=C(S[C@@H]3CN[C@H](C(=O)N(C)C)C3)[C@H](C)[C@H]12 [Meropenem, reference compound] | < 0.06 | 1 (≈ 2.61 µM) | 0.125 (≈ 0.326 µM) | > 128 | < 0.06 | 0.5 (≈ 1.3 µM) | 64 | 128 | 128 | – | – | – | – | – | – | – | – | – |
